Test results from patent EP0336326A2, “3-Aminodihydrothiophene-2-one peptide derivatives, processes for the preparation and therapeutic use” (POLI INDUSTRIA CHIMICA S.p.A., priority 1988, dated 1989).
Like-named read-outs stand apart in the source and are kept apart here.

Experiments:
[1] = mucolytic-expectorant activity: test of fluorescein elimination from the respiratory tract; assay type: in vivo; details: po; 0.5 mM/kg orally; in comparison with the controls; read-out: increase in the dye excretion
[2] = test system: Bordetella pertussis induced edema; experiment: antiinflammatory activity: Bordetella pertussis induced edema test; assay type: in vivo; details: in Rattus norvegicus, po, 24 h, read-out: reduce the edema after 24 hours
Protocol: The antiinflammatory activity was evaluated by the test of Bordetella pertussis induced edema in the rat (F. Capasso, Agents and Actions, 11, 741, 1981).

hystamine shock = experiment: antibronchospastic activity: histamine shock test; assay type: in vivo; details: Cavia porcellus, ip; guinea pig; 0.25 mM/kg i.p.; compared with the basal values; read-out: increase resistance times against shock
Protocol: The antibronchospastic activity of the compounds of the present invention was evaluated by the hystamine shock test in guinea pig (P. C. Braga et al., Min. Pneumol., 23, 447, 1984).

4% mucin suspension = experiment: in vitro mucolytic activity test with a 4% mucin suspension; assay type: biochemical; details: equimolar concentrations (0.00625 M), after hydrolysis with rat serum; 6250 µM
[3] = test system: elastase-induced emphysema; experiment: antiemphysema activity: pancreatic elastase induced emphysema, mean linear intercept (MLI) morphometry; assay type: in vivo; details: hamster; 0.25 mM/kg per os, during 4 weeks
From the text: The compounds of the present invention also display an interesting antiemphysema activity in the hamster (P.J. Stone et al., Amer. Rev. Respir. Dis., 124, 56, 1981). Emphysema induced by pancreatic elastase is morphometrically measured by evaluating, in µm, the mean linear intercept (MLI) (J. Kleinerman et al., Amer. Rev. Respir. Dis., 121, 381, 1980).

CCl4intoxication = experiment: hepatoprotective activity: CCl4 intoxication test; assay type: in vivo; details: ip, rat, 0.25 mM/kg i.p.
Protocol: The hepatoprotective activity was determined by the CCl4intoxication test in the rat (E. C. Ferreyra et al., Toxic. Appl. Pharmacol., 27, 558, 1974).

[4] = in comparison with intoxicated controls, read-out: reduce serum GOT
[5] = in comparison with the intoxicated controls, read-out: reduce serum GPT

`CC(SC(=O)c1cccs1)C(=O)NCC(=O)N1CSC[C@H]1C(=O)NC1CCSC1=O` (stereo partly drawn) [Compound VIII, 3-{L-3-[(2-thenoylthiopropionyl)glycyl]thiazolidin-4-carbonyl}aminodihydrothiophene-2-one] showed a change in vivo at 500 µM, 500 µmol/kg [1] of 70.8%, an inhibition in vivo at 500 µM, 500 µmol/kg [2] of 38.1% and a change in vivo at 250 µM, 250 µmol/kg (hystamine shock) of 188%. The reductions in viscosity (4% mucin suspension) was 13.2%, the “reduce the MLI increase in elastase-induced emphysema” value (“reduce the MLI increase” for short) [3] was 35.4% and the inhibition in vivo at 250 µM, 250 µmol/kg (CCl4intoxication; [4]) was 60.1%. For the same compound, the inhibition in vivo at 250 µM, 250 µmol/kg (CCl4intoxication; [5]) was 54.1%.
For `CC(S)C(=O)NCC(=O)N1CSC[C@H]1C(=O)NC1CCSC1=O` (stereo partly drawn) [Compound VI, 3-{L-3-[(2-thiolpropionyl)glycyl]thiazolidin-4-carbonyl} aminodihydrothiophene-2-one], the change in vivo at 500 µM, 500 µmol/kg [1] was 74.1%, the inhibition in vivo at 500 µM, 500 µmol/kg [2] was 38.7% and the change in vivo at 250 µM, 250 µmol/kg (hystamine shock) was 191%. For the same compound, the reductions in viscosity (4% mucin suspension) was 13.4%, the “reduce the MLI increase” value [3] was 35.6% and the inhibition in vivo at 250 µM, 250 µmol/kg (CCl4intoxication; [4]) was 58.5%. For the same compound, the inhibition in vivo at 250 µM, 250 µmol/kg (CCl4intoxication; [5]) was 52.8%.
In the case of `CC(S)C(=O)NCC(=O)NC1CCSC1=O` (stereo not shown) [Compound II, 3-[(2-thiolpropionyl)glycyl]aminodihydrothiophene-2-one], the change in vivo at 500 µM, 500 µmol/kg [1] is reported as 72%, the inhibition in vivo at 500 µM, 500 µmol/kg [2] is reported as 42.1% and the change in vivo at 250 µM, 250 µmol/kg (hystamine shock) is reported as 190%. The reductions in viscosity (4% mucin suspension) was 13.4%, the “reduce the MLI increase” value [3] was 30.6% and the inhibition in vivo at 250 µM, 250 µmol/kg (CCl4intoxication; [4]) was 55.8%. For the same compound, the inhibition in vivo at 250 µM, 250 µmol/kg (CCl4intoxication; [5]) was 52.3%.
Work on `CC(S)C(=O)NCC(=O)O` (stereo not shown) [tiopronin, reference compound] yielded a change in vivo at 500 µM, 500 µmol/kg [1] of 55.8%, an inhibition in vivo at 500 µM, 500 µmol/kg [2] of 28.6% and a change in vivo at 250 µM, 250 µmol/kg (hystamine shock) of 166%. For the same compound, the reductions in viscosity (4% mucin suspension) was 11.5%, the inhibition in vivo at 250 µM, 250 µmol/kg (CCl4intoxication; [4]) was 42.2% and the inhibition in vivo at 250 µM, 250 µmol/kg (CCl4intoxication; [5]) was 39.8%.
`CC(SC(=O)c1cccs1)C(=O)NCC(=O)NC1CCSC1=O` (racemic) [Compound III] gave a change in vivo at 500 µM, 500 µmol/kg [1] of 71.3%, an inhibition in vivo at 500 µM, 500 µmol/kg [2] of 41.8% and a change in vivo at 250 µM, 250 µmol/kg (hystamine shock) of 186%. For the same compound, the reductions in viscosity (4% mucin suspension) was 13.1%, the “reduce the MLI increase” value [3] was 32.7% and the inhibition in vivo at 250 µM, 250 µmol/kg (CCl4intoxication; [4]) was 54.7%. It also gave an inhibition in vivo at 250 µM, 250 µmol/kg (CCl4intoxication; [5]) of 54.1%.
`CC(S)C(=O)NCC(=O)N1CSC[C@H]1C(=O)O` (stereo partly drawn) [Compound VII, L-3-[(2-thiolpropionyl)glycyl]thiazolidin-4-carboxylic acid] gave a change in vivo at 500 µM, 500 µmol/kg [1] of 71.9%, an inhibition in vivo at 500 µM, 500 µmol/kg [2] of 37.9% and a change in vivo at 250 µM, 250 µmol/kg (hystamine shock) of 188%. The reductions in viscosity (4% mucin suspension) was 13.6%, the “reduce the MLI increase” value [3] was 34.9% and the inhibition in vivo at 250 µM, 250 µmol/kg (CCl4intoxication; [4]) was 59.3%. It also gave an inhibition in vivo at 250 µM, 250 µmol/kg (CCl4intoxication; [5]) of 51.9%.
Work on `CC(=O)N[C@@H](CS)C(=O)O` [N-acetyl-cysteine, reference compound] yielded a change in vivo at 500 µM, 500 µmol/kg [1] of 45.6%, an inhibition in vivo at 500 µM, 500 µmol/kg [2] of 23.2% and a change in vivo at 250 µM, 250 µmol/kg (hystamine shock) of 168%. It also gave a reductions in viscosity (4% mucin suspension) of 10.8%, an inhibition in vivo at 250 µM, 250 µmol/kg (CCl4intoxication; [4]) of 39.9% and an inhibition in vivo at 250 µM, 250 µmol/kg (CCl4intoxication; [5]) of 37.8%.
Work on `CC(=O)N[C@@H](CS)C(=O)N[C@H]1CCSC1=O` [Compound IV, L-3-[(N-acetylcysteinyl)]aminodihydrothiophene-2-one] yielded a change in vivo at 500 µM, 500 µmol/kg [1] of 68.5%, an inhibition in vivo at 500 µM, 500 µmol/kg [2] of 36.7% and a change in vivo at 250 µM, 250 µmol/kg (hystamine shock) of 180%. The reductions in viscosity (4% mucin suspension) was 12.8%, the “reduce the MLI increase” value [3] was 31.8% and the inhibition in vivo at 250 µM, 250 µmol/kg (CCl4intoxication; [4]) was 52.7%. For the same compound, the inhibition in vivo at 250 µM, 250 µmol/kg (CCl4intoxication; [5]) was 48.7%.
`CC(=O)N[C@@H](CSC(=O)c1cccs1)C(=O)NC1CCSC1=O` (stereo partly drawn) [Compound V, 3-(N-acetyl-S-(2-thenoyl)-cysteinyl)aminodihydrothiophene-2-one] showed a change in vivo at 500 µM, 500 µmol/kg [1] of 67.6%, an inhibition in vivo at 500 µM, 500 µmol/kg [2] of 35.8% and a change in vivo at 250 µM, 250 µmol/kg (hystamine shock) of 181%. For the same compound, the reductions in viscosity (4% mucin suspension) was 12.4%, the “reduce the MLI increase” value [3] was 32.7% and the inhibition in vivo at 250 µM, 250 µmol/kg (CCl4intoxication; [4]) was 56.1%. It also gave an inhibition in vivo at 250 µM, 250 µmol/kg (CCl4intoxication; [5]) of 47.6%.
